Measurements as given in patent US20240358693A1, “METHODS OF TREATING PAIN” (Aisa Pharma, Inc., priority 2023, published 2024).

Test system: participants with SSc-RP
Assay: Average daily Raynaud's Condition Score (RCS)
Format: in vivo, human
Set-up: key to Average Daily RCS, Mean / Average Daily RCS, Median / Average Daily RCS, Change from Baseline, Mean / Average Daily RCS, Change from Baseline, Median / Average daily RCS, Baseline, Mean / Average daily RCS, Baseline, Median / Mean RCS at baseline: RCS rated on a 0-10 cm VAS scale
Conditions: for Average Daily RCS, Change from Baseline, Mean / Average Daily RCS, Change from Baseline, Median / Average Daily RCS, Percent Change from Baseline, Mean / Average Daily RCS, Percent Change from Baseline, Median / Average Daily RCS, Mean / Average Daily RCS, Median / Average Daily RCS (dosing period), Mean / Average Daily RCS (dosing period), Median / Average daily RCS, Baseline, Mean / Average daily RCS, Baseline, Median: ITT Part A; for Average Daily RCS, Mean / Average Daily RCS, Median: dosing period
Text: The RCS is based on how much difficulty participants had with Raynaud's today, how many attacks the participant had, and how long they lasted. In addition participants were and will be asked to consider how much pain, numbness, or other symptoms the Raynaud's caused in fingers (including painful sores), and how much the Raynaud's along affected the use of hand today (VAS 0-10 cm scale).
The absolute change in average daily RCS from baseline to the end of each dosing period was and will be a secondary outcome variable. The sponsor-developed participant-informed diary has been and will be used to record data. The average daily RCS is defined as the total RCS divided by the number of days with available diary data of each dosing period. Total RCS during screening period divided by the number of days with available data will be used as baseline for the analysis of all periods. If there are multiple daily RCS scores, the latest daily RCS will be used. The variable will be calculated similar to frequency data as before.

[1] = excluding outliers, dose Cilnidipine 10 mg, Tadalafil 5 mg, or 10 mg + 5 mg
[2] = excluding outliers, dose Cilnidipine 20 mg, or 20 mg + Tadalafil 5 mg
[3] = excluding outliers, pooled 10 mg and 20 mg Cilnidipine arms (combination: + Tadalafil 5 mg)
[4] = excluding outliers, pooled Cilnidipine 10 mg and Cilnidipine 10 mg + Tadalafil 5 mg
[5] = excluding outliers, pooled Cilnidipine 20 mg and Cilnidipine 20 mg + Tadalafil 5 mg
[6] = Pooled Cilnidipine 10 mg and Cilnidipine 10 mg + Tadalafil 5 mg
[7] = Pooled Cilnidipine 20 mg and Cilnidipine 20 mg + Tadalafil 5 mg

Compound: COCCOC(=O)C1=C(C)NC(C)=C(C(=O)OC/C=C/c2ccccc2)C1c1cccc([N+](=O)[O-])c1 (stereo not shown) [Cilnidipine, cilnidipine]
- Average Daily RCS, Change from Baseline, Mean (Cilnidipine 10 mg): −0.98
- Average Daily RCS, Change from Baseline, Median (Cilnidipine 10 mg): −0.98
- Average Daily RCS, Percent Change from Baseline, Mean (Cilnidipine 10 mg): −35.74%
- Average Daily RCS, Percent Change from Baseline, Median (Cilnidipine 10 mg): −35.74%
- Average Daily RCS, Mean (Cilnidipine 10 mg): 1.76
- Average Daily RCS, Median (Cilnidipine 10 mg): 1.76
- Average Daily RCS, Change from Baseline, Mean (Cilnidipine 20 mg): −0.45
- Average Daily RCS, Change from Baseline, Median (Cilnidipine 20 mg): −0.45
- Average Daily RCS, Percent Change from Baseline, Mean (Cilnidipine 20 mg): −17.16%
- Average Daily RCS, Percent Change from Baseline, Median (Cilnidipine 20 mg): −17.16%
- Average Daily RCS, Mean (Cilnidipine 20 mg): 2.90
- Average Daily RCS, Median (Cilnidipine 20 mg): 2.90
- Daily RCS Change (Cilnidipine (20 mg) (n = 3)): −28%
- Mean % reduction in RCS (Cilnidipine (20 mg) (n = 3)): 27.9%
- Mean RCS at baseline (Cilnidipine (20 mg) (n = 3)): 3.5
- Average Daily RCS (dosing period), Mean [1]: 1.76
- Average Daily RCS (dosing period), Median [1]: 1.76
- Average Daily RCS, Change from Baseline, Mean [1]: −0.98
- Average Daily RCS, Change from Baseline, Median [1]: −0.98
- Average Daily RCS, Percent Change from Baseline, Mean [1]: −35.74%
- Average Daily RCS, Percent Change from Baseline, Median [1]: −35.74%
- Average daily RCS, Baseline, Mean [1]: 2.74
- Average daily RCS, Baseline, Median [1]: 2.74
- Average Daily RCS (dosing period), Mean [2]: 2.90
- Average Daily RCS (dosing period), Median [2]: 2.90
- Average Daily RCS, Change from Baseline, Mean [2]: −0.45
- Average Daily RCS, Change from Baseline, Median [2]: −0.45
- Average Daily RCS, Percent Change from Baseline, Mean [2]: −17.16%
- Average Daily RCS, Percent Change from Baseline, Median [2]: −17.16%
- Average daily RCS, Baseline, Mean [2]: 3.35
- Average daily RCS, Baseline, Median [2]: 3.35
- Average Daily RCS (dosing period), Mean [3]: 2.52
- Average Daily RCS (dosing period), Median [3]: 1.76
- Average Daily RCS, Change from Baseline, Mean [3]: −0.63
- Average Daily RCS, Change from Baseline, Median [3]: −0.98
- Average Daily RCS, Percent Change from Baseline, Mean [3]: −23.35%
- Average Daily RCS, Percent Change from Baseline, Median [3]: −35.74%
- Average daily RCS, Baseline, Mean [3]: 3.15
- Average daily RCS, Baseline, Median [3]: 2.80
- Average Daily RCS (dosing period), Mean [4]: 2.43
- Average Daily RCS (dosing period), Median [4]: 1.76
- Average Daily RCS, Change from Baseline, Mean [4]: −1.64
- Average Daily RCS, Change from Baseline, Median [4]: −1.51
- Average Daily RCS, Percent Change from Baseline, Mean [4]: −41.77%
- Average Daily RCS, Percent Change from Baseline, Median [4]: −36.47%
- Average daily RCS, Baseline, Mean [4]: 4.07
- Average daily RCS, Baseline, Median [4]: 2.85
- Average Daily RCS (dosing period), Mean [5]: 3.60
- Average Daily RCS (dosing period), Median [5]: 3.82
- Average Daily RCS, Change from Baseline, Mean [5]: −1.08
- Average Daily RCS, Change from Baseline, Median [5]: −0.59
- Average Daily RCS, Percent Change from Baseline, Mean [5]: −18.93%
- Average Daily RCS, Percent Change from Baseline, Median [5]: −20.71%
- Average daily RCS, Baseline, Mean [5]: 4.68
- Average daily RCS, Baseline, Median [5]: 3.74
- Average Daily RCS, Change from Baseline, Mean [6]: −1.64
- Average Daily RCS, Change from Baseline, Median [6]: −1.51
- Average Daily RCS, Percent Change from Baseline, Mean [6]: −41.77%
- Average Daily RCS, Percent Change from Baseline, Median [6]: −36.47%
- Average Daily RCS, Mean [6]: 2.43
- Average Daily RCS, Median [6]: 1.76
- Average Daily RCS, Change from Baseline, Mean [7]: −1.08
- Average Daily RCS, Change from Baseline, Median [7]: −0.59
- Average Daily RCS, Percent Change from Baseline, Mean [7]: −18.93%
- Average Daily RCS, Percent Change from Baseline, Median [7]: −20.71%
- Average Daily RCS, Mean [7]: 3.60
- Average Daily RCS, Median [7]: 3.82
- Daily RCS Change (Pooled Cilnidipine (n = 7), this value n = 3): 12% (n = 3)
- Average Daily RCS, Change from Baseline, Mean (Pooled Cilnidipine): −0.63
- Average Daily RCS, Change from Baseline, Median (Pooled Cilnidipine): −0.98
- Average Daily RCS, Percent Change from Baseline, Mean (Pooled Cilnidipine): −23.35%
- Average Daily RCS, Percent Change from Baseline, Median (Pooled Cilnidipine): −35.74%
- Average Daily RCS, Mean (Pooled Cilnidipine): 2.52
- Average Daily RCS, Median (Pooled Cilnidipine): 1.76

Compound: CN1CC(=O)N2[C@H](c3ccc4c(c3)OCO4)c3[nH]c4ccccc4c3C[C@@H]2C1=O [Tadalafil, tadalafil]
- Average Daily RCS (dosing period), Mean [1]: 4.46
- Average Daily RCS (dosing period), Median [1]: 4.46
- Average Daily RCS, Change from Baseline, Mean [1]: −1.58
- Average Daily RCS, Change from Baseline, Median [1]: −1.58
- Average Daily RCS, Percent Change from Baseline, Mean [1]: −26.18%
- Average Daily RCS, Percent Change from Baseline, Median [1]: −26.18%
- Average daily RCS, Baseline, Mean [1]: 6.04
- Average daily RCS, Baseline, Median [1]: 6.04
- Average Daily RCS, Change from Baseline, Mean (Tadalafil 5 mg): −0.67
- Average Daily RCS, Change from Baseline, Median (Tadalafil 5 mg): −0.67
- Average Daily RCS, Percent Change from Baseline, Mean (Tadalafil 5 mg): −11.76%
- Average Daily RCS, Percent Change from Baseline, Median (Tadalafil 5 mg): −11.76%
- Average Daily RCS, Mean (Tadalafil 5 mg): 7.05
- Average Daily RCS, Median (Tadalafil 5 mg): 7.05
